From patent US7112579B2, “26,27-Homologated-20-EPI-2-alkyl-19-nor-vitamin D compounds” (Wisconsin Alumni Research Foundation, priority 1997, dated 2006)
“And” between values parts separate entries of the source, which are not always exact repeats. Equal entries are not always repeated. Where two headings read alike, the source gives them in different places. Marks after values point to notes of the source that are not given here.

Experiments:
[1] = tested on: human promyelocyte HL-60 cells; experiment: Differentiation of HL-60 promyelocytes into monocytes (NBT reduction); type: cell-based; conditions: for HL-60 Differentiation ED50: concentration inducing 50% maturation (NBT); for HL-60 Differentiation Activity ratio: analog average ED50 / ED50 for 1α,25-(OH)2D3; for induction of differentiation of HL-60 cells to monocytes, in words: FIGS. 2, 4, 6, comparison in words
Description: In the next assay, the cellular activity of the synthesized compounds was established by studying their ability to induce differentiation of human promyelocyte HL-60 cells into monocytes.

[2] = tested on: intestinal calcium transport; experiment: Intestinal calcium transport (everted sac), chronic doses 7 days i.p., vitamin D-deficient rats; type: in vivo, rat; conditions: for intestinal calcium transport activity, in words: chronic 7 days, 130 and/or 260 pmol/day
Description: (§1) Male weanling rats were obtained from Sprague Dawley Co. (Indianapolis, Ind.) and fed a 0.47% calcium, 0.3% phosphorus vitamin D-deficient diet for 1 week and then given the same diet containing 0.02% calcium, 0.3% phosphorus for 2 weeks. During the last week they were given the indicated dose of compound by intraperitoneal injection in 0.1 ml 95% propylene glycol and 5% ethanol each day for 7 days. The control animals received only the 0.1 ml of 95% propylene glycol, 5% ethanol. Twenty-four hours after the last dose, the rats were sacrificed and intestinal calcium transport was determined by everted sac technique as previously described and serum calcium determined by atomic absorption spectrometry on a model 3110 Perkin Elmer instrument (Norwalk, Conn.). There were 5 rats per group and the values represent mean±SEM.
as §1, with “With respect to the data in Tables 3 and 4, male” for “Male”, “atormic” for “atomic”

[3] = tested on: serum calcium (bone calcium mobilization); experiment: Serum calcium (bone calcium mobilization), chronic doses 7 days i.p., vitamin D-deficient rats; type: in vivo, rat; conditions: for bone calcium mobilization (serum calcium) activity, in words: chronic 7 days, 130 and/or 260 pmol/day
Description: as §1
as §1, with “With respect to the data in Tables 3 and 4, male” for “Male”, “atormic” for “atomic”

[4] = tested on: intestinal calcium transport; experiment: Intestinal calcium transport after a single intrajugular dose, vitamin D-deficient rats; type: in vivo, rat; conditions: Table 2, single intrajugular dose 650 pmol, 24 h, mean±SEM
Description: (§2) Male Holtzman strain weanling rats were obtained from the Sprague Dawley Co. (Indianapolis, Ind.) and fed the 0.47% calcium, 0.3% phosphorus diet described by Suda et al. (J. Nutr. 100, 1049–1052, 1970) for 1 week and then fed the same diet containing 0.02% calcium and 0.3% phosphorus for 2 additional weeks. At this point, they received a single intrajugular injection of the indicated dose dissolved in 0.1 ml of 95% propylene glycol/5% ethanol. Twenty-four hours later they were sacrificed and intestinal calcium transport and serum calcium were determined as described in Table 1. The dose of the compounds was 650 pmol and there were 5 animals per group. The data are expressed as mean±SEM.

[5] = tested on: serum calcium (bone calcium mobilization); experiment: Serum calcium (bone calcium mobilization) after a single intrajugular dose, vitamin D-deficient rats; type: in vivo, rat; conditions: Table 2, single intrajugular dose 650 pmol, 24 h, mean±SEM
Description: as §2

[6] = tested on: intestinal calcium transport; experiment: Support of intestinal calcium transport in vitamin D-deficient rats on a low-calcium diet (3 weeks), 7 daily i.p. doses; type: in vivo, rat
[7] = tested on: bone calcium mobilization (serum Ca); experiment: Bone calcium mobilization (serum Ca) in vitamin D-deficient rats on a low-calcium diet (3 weeks), 7 daily i.p. doses; type: in vivo, rat
[8] = biological target: T1, porcine intestinal vitamin D receptor (Sus scrofa, UniProt A3RGC1); experiment: Competitive binding to the porcine intestinal vitamin D receptor ([3H]-1,25-(OH)2-D3 displacement); set-up: species or system pig; conditions: for VDR Binding ratio: analog average ED50 / ED50 for 1α,25-(OH)2D3; for EC50: concentration for 50% displacement of radiolabeled 1α,25-(OH)2D3, read-out: VDR Binding ED50
T1 construct: from tissue; host or cells: porcine intestine
T1 sequence (A3RGC1 1-427): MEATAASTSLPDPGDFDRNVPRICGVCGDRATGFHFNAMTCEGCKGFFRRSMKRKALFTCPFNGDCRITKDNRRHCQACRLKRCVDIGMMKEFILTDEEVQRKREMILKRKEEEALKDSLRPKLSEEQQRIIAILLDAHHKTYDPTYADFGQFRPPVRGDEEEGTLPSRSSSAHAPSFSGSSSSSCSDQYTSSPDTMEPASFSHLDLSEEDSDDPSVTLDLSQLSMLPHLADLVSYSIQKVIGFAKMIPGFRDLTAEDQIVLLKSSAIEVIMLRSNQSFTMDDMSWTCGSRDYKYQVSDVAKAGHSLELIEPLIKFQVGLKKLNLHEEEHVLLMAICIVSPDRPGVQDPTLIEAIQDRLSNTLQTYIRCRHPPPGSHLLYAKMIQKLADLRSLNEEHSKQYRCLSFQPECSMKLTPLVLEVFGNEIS

[9] = Table 1, 260 pmol/day/7 days i.p., mean±SEM, 5 rats
[10] = Table 4, 260 pmol/day/7 days i.p., mean±SEM
[11] = Table 5, 260 pmol/day/7 days i.p.
[12] = Table 7 panel 1, 260 pmol daily x 7 i.p.
[13] = Table 7 panel 2, 260 pmol daily x 7 i.p.
[14] = Table 9 panel 1, 260 pmol daily x 7 i.p.
[15] = Table 9 panel 2, 260 pmol daily x 7 i.p.
[16] = Table 9 panel 1, 32 pmol daily x 7 i.p.
[17] = Table 9 panel 1, 65 pmol daily x 7 i.p.
[18] = Table 7 panel 2, 65 pmol daily x 7 i.p.
[19] = Table 1, 130 pmol/day/7 days i.p., mean±SEM, 5 rats
[20] = listed as α and β isomers of 2-methyl-19-nor-1,25-(OH)2D3
[21] = listed as 2-Methyl (α and β mixture)-19-Nor-1,25-(OH)2D3
[22] = listed as 2-Methyl (α and β mixture)-19-Nor-20S-1,25-(OH)2D3

In the case of `C=C1/C(=C\C=C2/CCC[C@]3(C)[C@@H]([C@H](C)CCCC(C)(C)O)CC[C@@H]23)C[C@@H](O)C[C@@H]1O` [1α,25-(OH)2D3, 1α,25-dihydroxyvitamin D3, reference compound], the “HL-60 Differentiation ED50” value ([1]; Table 6) is reported as 4 nM, the “HL-60 Differentiation ED50” value ([1]; Table 8) is reported as 4 nM and the “Intestinal Calcium Transport (S/M)” value [2, 9] is reported as 6.2 ± 0.4 S/M. For the same molecule, the “Intestinal Calcium Transport (S/M)” value ([2]; Table 3, 260 pmol/day/7 days i.p., mean±SEM) was 4.6 ± 0.2 S/M, the “Intestinal Calcium Transport (S/M)” value [2, 10] was 5.6 ± 1.3 S/M and the “Intestinal Calcium Transport (S/M)” value [2, 11] was 6.6 ± 0.5 S/M. For the same molecule, the “Serum Calcium” value ([3]; Table 1, 260 pmol/day/7 days i.p., mean±SEM, 5 rats, listed as 1,25-(OH)2D3) was 7.2 mg/100 ml and 7.2 ± 0.5 mg/100 ml, the “Serum Calcium” value ([3]; Table 3, 260 pmol/day/7 days i.p., mean±SEM, listed as 1,25-(OH)2D3) was 6.6±0.4 mg/100 ml and the “Serum Calcium” value [3, 10] was 6.1 ± 0.5 mg/100 ml. The “Serum Calcium” value [3, 11] was 5.2 ± 0.1 mg/100 ml, the “Intestinal Calcium Transport (S/M)” value [4] was 5.8 ± 0.3 S/M and the “Serum Calcium” value [5] was 5.7 ± 0.2 mg/100 ml. The “Ca Transport S/M (mean ± SEM)” value [6, 12] was 7.2 ± 0.6^c S/M, the “Ca Transport S/M (mean ± SEM)” value [6, 13] was 5.0 ± 0.4^c S/M and the “Ca Transport S/M (mean ± SEM)” value [6, 14] was 7.2 ± 0.6^c S/M. The “Ca Transport S/M (mean ± SEM)” value [6, 15] was 5.0 ± 0.4^c S/M, the “Serum Ca (mean ± SEM)” value [7, 12] was 5.6 ± 0.2^c and the “Serum Ca (mean ± SEM)” value [7, 13] was 6.3 ± 0.2^c. The “Serum Ca (mean ± SEM)” value [7, 14] was 5.6 ± 0.2^c and the “Serum Ca (mean ± SEM)” value [7, 15] was 6.3 ± 0.2^c.

For `CC1[C@H](O)CC(=C/C=C2\CCC[C@@]3(C)C2CCC3[C@@H](C)CCCC2(O)CCCC2)C[C@H]1O` (stereo partly drawn) [Compound 48, 20(S)-1α,25-Dihydroxy-26,27-dimethylene-2α-methyl-19-norvitamin D3], the “VDR Binding ratio” value ([8]; Table 8) was 4.0, the EC50 ([8]; Table 8) was 3.5 nM and the “HL-60 Differentiation Activity ratio” value ([1]; Table 8) was 0.01. For the same molecule, the “HL-60 Differentiation ED50” value ([1]; Table 8) was 0.044 nM, the “Ca Transport S/M (mean ± SEM)” value [6, 16] was 7.9 ± 1.0^d^1 S/M and the “Ca Transport S/M (mean ± SEM)” value [6, 17] was 9.0 ± 1.0^d^2 S/M. The “Serum Ca (mean ± SEM)” value [7, 16] was 6.9 ± 0.5^d^1 and the “Serum Ca (mean ± SEM)” value [7, 17] was 9.0 ± 0.3^d^2.

In the case of `CCC(O)(CC)CCCC(C)C1CCC2C(=CC=C3CC(O)C(C)C(O)C3)CCCC21C` [Compound 37, 20(S)-1α,25-Dihydroxy-2β-methyl-26,27-dihomo-19-norvitamin D3], the “VDR Binding ratio” value ([8]; Table 6) is reported as 5.5, the EC50 ([8]; Table 6) is reported as 4.8 nM and the “HL-60 Differentiation Activity ratio” value ([1]; Table 6) is reported as 0.03. For the same molecule, the “HL-60 Differentiation ED50” value ([1]; Table 6) was 0.11 nM, the “Ca Transport S/M (mean ± SEM)” value [6, 18] was 4.7 ± 0.6^d^1 S/M and the “Ca Transport S/M (mean ± SEM)” value [6, 13] was 5.2 ± 0.6^d^2 S/M. For the same molecule, the “Serum Ca (mean ± SEM)” value [7, 18] was 5.0 ± 0.0^d^1 and the “Serum Ca (mean ± SEM)” value [7, 13] was 9.9 ± 0.3^d^2.

`CC(CCCC(C)(C)O)C1CCC2C(=CC=C3CC(O)C(C)C(O)C3)CCCC21C` (mixture of isomers) [2-Methyl (α and β) 19-Nor-1,25-(OH)2D3, mixture of 2α and 2β-methyl-19-nor-1α,25-dihydroxyvitamin D3] was tested, and the “induction of differentiation of HL-60 cells to monocytes, in words” value [1] was “activity similar to 1,25-(OH)2D3”, the “Intestinal Calcium Transport (S/M)” value [2, 19] was 5.0 ± 0.3 S/M and the “Intestinal Calcium Transport (S/M)” value [2, 9] was 5.3 ± 0.6 S/M. For the same molecule, the “intestinal calcium transport activity, in words” value [2, 20] was “no intestinal calcium transport activity”, the “Serum Calcium” value [3, 19] was 6.1 ± 0.1 mg/100 ml and the “Serum Calcium” value [3, 9] was 6.7 ± 0.4 mg/100 ml. For the same molecule, the “bone calcium mobilization (serum calcium) activity, in words” value [3, 20] was “strong bone calcium mobilization at both dose levels”, the “Intestinal Calcium Transport (S/M)” value [4, 21] was 3.6 ± 0.4 S/M and the “Serum Calcium” value [5, 21] was 5.4 ± 0.1 mg/100 ml.

In the case of `CC(CCCC(C)(C)O)C1CCC2C(=CC=C3CC(O)C(C)C(O)C3)CCCC21C` (mixture of isomers) [2-Methyl (α and β) 19-Nor-20S-1,25-(OH)2D3] [mixture of 2α and 2β-methyl-19-nor-20S-1α,25-dihydroxyvitamin D3], the “induction of differentiation of HL-60 cells to monocytes, in words” value ([1]; listed as α and β derivatives of 2-methyl-19-nor-20S-1,25-(OH)2D3) is reported as “extremely potent”, the “Intestinal Calcium Transport (S/M)” value [2, 19] is reported as 5.0 ± 0.9 S/M and the “Intestinal Calcium Transport (S/M)” value [2, 9] is reported as 6.9 ± 0.5 S/M. The “intestinal calcium transport activity, in words” value [2] was “no significant change in intestinal calcium transport at 130 pmol dose level”, the “Serum Calcium” value [3, 19] was 9.6 ± 0.1 mg/100 ml and the “Serum Calcium” value ([3]; Table 1, 130 pmol/day/7 days i.p., mean±SEM, 5 rats, listed as 2-methyl-(α and β)-19-nor-20S-1,25-(OH)2D3) was 9.6 mg/100 ml. For the same molecule, the “Serum Calcium” value [3, 9] was 12.2 ± 0.3 mg/100 ml, the “Serum Calcium” value ([3]; Table 1, 260 pmol/day/7 days i.p., mean±SEM, 5 rats, listed as 2-methyl-(α and β)-19-nor-20S-1,25-(OH)2D3) was 12.2 mg/100 ml and the “bone calcium mobilization (serum calcium) activity, in words” value [3] was “much higher than that of the native hormone”. For the same molecule, the “Intestinal Calcium Transport (S/M)” value [4, 22] was 6.7 ± 0.6 S/M and the “Serum Calcium” value [5, 22] was 8.1 ± 0.3 mg/100 ml.
